Data published in ChEMBL document CHEMBL6115007, “Synthesis and in vitro and in vivo evaluation of novel bivalent quinolines as antitumor agents via targeting autophagy in cervical cancer” (Eur J Med Chem, 2025).
Activity calls are given as the source filed them. No cut-off for these calls is given here.

How the values were obtained:
Ca-Ski [1] = test: Effect on cleaved PARP expression level in p53 deficient human Ca Ski cells at 0.5 to 1 uM incubated for 24 hrs by Western blot analysis; type: functional, cell-based; conditions: dose 0.5-1 µM
HeLa [2] = test: Effect on cleaved PARP expression level in p53 deficient human HeLa cells at 0.6 to 1.2 uM incubated for 24 hrs by Western blot analysis; type: functional, cell-based; conditions: dose 0.6-1.2 µM
Ca-Ski [3] = test: Induction of apoptosis in human Ca Ski cells assessed as late apoptotic cells at 0.5 uM preincubated with Z-VAD-FMK for 1 hrs followed by compound addition and measured after 24 hrs by Annexin V-FITC/PI staining based flow cytometric analysis (reference value: 5.30 %); type: functional
Ca-Ski [4] = test: Induction of ferroptosis in human Ca Ski cells assessed as increase in lipid ROS level by measuring rightward shift in fluorescence intensity at 0.5 uM measured after 24 hrs by C11-BODIPY-581/591 staining based flow cytometric analysis; type: functional, cell-based
HeLa [5] = test: Inhibition of colony formation in ATG5 deficient human HeLa cells at 0.15 to 0.6 uM incubated for 24 hrs by crystal violet staining based analysis; type: functional, cell-based; conditions: dose 0.15-0.6 µM
HeLa [6] = test: Effect on GPX4 protein expression level in human HeLa cells at 0.6 uM incubated for 24 hrs by Western blot analysis; type: functional, cell-based
HeLa [7] = test: Effect on cleaved PARP expression level in human HeLa cells at 0.3 to 1.2 uM incubated for 24 hrs by Western blot analysis; type: functional, cell-based; conditions: dose 0.3-1.2 µM
HeLa [8] = test: Effect on caspase 3 expression level in human HeLa cells at 0.3 to 1.2 uM incubated for 24 hrs by Western blot analysis; type: functional, cell-based; conditions: dose 0.3-1.2 µM
HeLa [9] = test: Induction of apoptosis in human HeLa cells assessed as necrotic cells at 1.2 uM preincubated with Z-VAD-FMK for 1 hrs followed by compound addition and measured after 24 hrs by Annexin V-FITC/PI staining based flow cytometric analysis (reference value: 2.16 %); type: functional
[10] = Toxicity in female BALB/c mouse xenografted with human HeLa cells assessed as effect on kidney at 4 to 8 mg/kg administered every four days and measured after 26 days by H and E staining based analysis; type: organism-based; conditions: in vivo, 624 h, dose 4-8 mg/kg, time 26 day
Ca-Ski [11] = test: Induction of morphological changes in human Ca Ski cells assessed as decrease in cell adherence to culture dish at 0.5 to 2 uM by microphotographic analysis; type: functional, cell-based; conditions: dose 0.5-2 µM
Ca-Ski [12] = test: Induction of apoptosis in human Ca Ski cells assessed as early apoptotic cells at 0.5 uM preincubated with Z-VAD-FMK for 1 hrs followed by compound addition and measured after 24 hrs by Annexin V-FITC/PI staining based flow cytometric analysis (reference value: 2.91 %); type: functional
[13] = Toxicity in female BALB/c mouse xenografted with human HeLa cells assessed as effect on AST level at 4 to 8 mg/kg administered every four days and measured after 26 days; type: organism-based; conditions: in vivo, 624 h, dose 4-8 mg/kg, time 26 day
HeLa [14] = test: Induction of apoptosis in human HeLa cells assessed as necrotic cells at 1.2 uM incubated for 24 hrs by Annexin V-FITC/PI staining based flow cytometric analysis (reference value: 1.88 %); type: functional
HCT-116 = test: Antiproliferative activity against human HCT-116 cells assessed as reduction in cell optical density incubated for 48 hrs by MTT assay; type: functional, cell-based; conditions: HCT-116, 48 h
Ca-Ski [15] = test: Induction of autophagolysosome formation in human Ca Ski cells transfected with mRFP-GFP-LC3 plasmid assessed as increase in ratio of mRFP to GFP puncta at 0.3 to 0.6 uM incubated for 24 hrs; type: functional, cell-based; conditions: dose 0.3-0.6 µM
HeLa [16] = test: Effect on cleaved caspase 3 expression level in Bax deficient human HeLa cells at 0.6 to 1.2 uM incubated for 24 hrs by Western blot analysis; type: functional, cell-based; conditions: dose 0.6-1.2 µM
HeLa [17] = test: Inhibition of cell migration in human HeLa cells at 0.6 to 1.2 uM measured after 48 hrs by cell scratch assay; type: functional, cell-based; conditions: dose 0.6-1.2 µM
Ca-Ski [18] = test: Induction of apoptosis in human Ca Ski cells assessed as early apoptotic cells at 1 uM preincubated with Z-VAD-FMK for 1 hrs followed by compound addition and measured after 24 hrs by Annexin V-FITC/PI staining based flow cytometric analysis (reference value: 2.91 %); type: functional
[19] = Toxicity in female BALB/c mouse xenografted with human HeLa cells assessed as effect on BUN level at 4 to 8 mg/kg administered every four days and measured after 26 days; type: organism-based; conditions: in vivo, 624 h, dose 4-8 mg/kg, time 26 day
Ca-Ski [20] = test: Induction of apoptosis in human Ca Ski cells assessed as late apoptotic cells at 1 uM preincubated with Z-VAD-FMK for 1 hrs followed by compound addition and measured after 24 hrs by Annexin V-FITC/PI staining based flow cytometric analysis (reference value: 5.30 %); type: functional
HeLa [21] = test: Induction of apoptosis in human HeLa cells assessed as late apoptotic cells at 1.2 uM incubated for 24 hrs by Annexin V-FITC/PI staining based flow cytometric analysis (reference value: 0.94 %); type: functional
Ca-Ski [22] = test: Effect on cleaved PARP expression level in Bax deficient human Ca Ski cells at 0.5 to 1 uM incubated for 24 hrs by Western blot analysis; type: functional, cell-based; conditions: dose 0.5-1 µM
[23] = Toxicity in female BALB/c mouse xenografted with human HeLa cells assessed as effect on platelet level at 4 to 8 mg/kg administered every four days and measured after 26 days; type: organism-based; conditions: in vivo, 624 h, dose 4-8 mg/kg, time 26 day
Ca-Ski [24] = test: Induction of autophagy in human Ca Ski cells assessed as increase in LC3-I conversion to LC3-II at 0.25 to 1 microM incubated for 24 hrs by Western blot analysis; type: functional, cell-based; conditions: dose 0.25-1 µM
HeLa [25] = test: Antiproliferative activity against ATG7 deficient human HeLa cells assessed as inhibition of cell viability incubated for 24 hrs by CCK8 assay; type: functional, cell-based
HeLa [26] = test: Antitumor activity against human HeLa cells xenografted in female BALB/c mouse assessed as reduction in Ki67 expression in tumor at 4 to 8 mg/kg administered every four days and measured after 26 days by immunohistochemical analysis; type: functional, organism-based; conditions: dose 4-8 mg/kg, time 26.0 day
HeLa [27] = test: Induction of apoptosis in human HeLa cells assessed as early apoptotic cells at 1.2 uM incubated for 24 hrs by Annexin V-FITC/PI staining based flow cytometric analysis (reference value: 0.97 %); type: functional
Ca-Ski [28] = test: Induction of autophagy in human Ca Ski cells transfected with mRFP-GFP-LC3 plasmid assessed as decrease in GFP fluorescence at 0.3 to 0.6 uM incubated for 24 hrs by DAPI staining based fluorescence confocal microscopic analysis; type: functional, cell-based; conditions: dose 0.3-0.6 µM
C-33-A = test: Inhibition of colony formation in human C-33-A cells assessed as reduction in colony forming unit count at 0.05 to 0.2 uM incubated for 24 hrs by crystal violet staining based analysis; type: functional, cell-based; conditions: dose 0.05-0.2 µM
HeLa [29] = test: Effect on ferroptosis pathway related gene expression in human HeLa cells at 1.2 uM incubated for 24 hrs by GSVA enrichment analysis; type: functional, cell-based
HeLa [30] = test: Induction of autophagy in human HeLa cells transfected with mRFP-GFP-LC3 plasmid assessed as appearance of RFP puncta clusters as aggregates in cytoplasm at 0.4 to 0.8 uM incubated for 24 hrs by DAPI staining based fluorescence confocal microscopic analysis; type: functional, cell-based; conditions: dose 0.4-0.8 µM

## COc1cccc(Nc2ccnc3cc(OCCCCCOc4ccc5c(Nc6cccc(OC)c6)ccnc5c4)ccc23)c1
Ca-Ski [1]
  Activity: inactive
HeLa [2]
  Activity: inactive
Ca-Ski [3]
  Activity: 17.3%
Ca-Ski [4]
  Activity: inactive
HeLa [5]
  inhibition: Minimal_effect
HeLa [6]
  Activity: Moderate_effect
HeLa [7]
  Activity: inactive
HeLa [8]
  Activity: inactive
HeLa [9]
  Activity: 1.49%
[10]
  Activity: Non-toxic
Ca-Ski [11]
  Activity: Active
Ca-Ski [12]
  Activity: 7.65%
[13]
  Activity: Non-toxic
HeLa [14]
  Activity: 1.47%
HCT-116
  IC50: 260 nM
Ca-Ski [15]
  Activity: Active
HeLa [16]
  Activity: inactive
HeLa [17]
  inhibition: Active
Ca-Ski [18]
  Activity: 5.56%
[19]
  Activity: Non-toxic
Ca-Ski [20]
  Activity: 6.59%
HeLa [21]
  Activity: 4.11%
Ca-Ski [22]
  Activity: inactive
[23]
  Activity: Non-toxic
Ca-Ski [24]
  Activity: Active
HeLa [25]
  IC50: 2310 nM
HeLa [26]
  Activity: Active
HeLa [27]
  Activity: 1.25%
Ca-Ski [28]
  Activity: Active
C-33-A
  inhibition: Active
HeLa [29]
  Activity: Minimal_effect
HeLa [30]
  Activity: Active
